Test results: patent US20250388565A1, “ESTROGEN RECEPTOR ALPHA DEGRADERS AND METHODS OF USE THEREOF” (Relay Therapeutics, Inc., priority 2022, published 2025)

Molecular target: T1, ERα protein (HiBiT-tagged) in ESR1_HiBiT KI MCF7 cells (Homo sapiens, UniProt P03372)
T1 sequence (P03372 1-595): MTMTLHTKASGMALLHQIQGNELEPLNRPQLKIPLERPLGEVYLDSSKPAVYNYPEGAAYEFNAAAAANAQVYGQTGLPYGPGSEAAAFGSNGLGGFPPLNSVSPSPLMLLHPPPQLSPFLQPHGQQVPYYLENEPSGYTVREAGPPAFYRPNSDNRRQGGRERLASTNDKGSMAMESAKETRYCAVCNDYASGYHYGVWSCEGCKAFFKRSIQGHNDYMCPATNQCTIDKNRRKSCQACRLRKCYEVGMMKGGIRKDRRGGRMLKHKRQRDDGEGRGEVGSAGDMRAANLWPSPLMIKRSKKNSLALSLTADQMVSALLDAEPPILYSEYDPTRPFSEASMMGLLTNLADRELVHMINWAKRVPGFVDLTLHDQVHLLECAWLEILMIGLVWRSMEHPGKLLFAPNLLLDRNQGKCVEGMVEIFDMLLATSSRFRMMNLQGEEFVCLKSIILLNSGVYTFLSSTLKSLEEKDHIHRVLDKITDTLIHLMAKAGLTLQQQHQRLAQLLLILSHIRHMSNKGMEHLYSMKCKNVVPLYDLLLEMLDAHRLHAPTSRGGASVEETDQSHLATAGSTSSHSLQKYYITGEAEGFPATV
Assay: Nano Glo HiBiT Lytic Degradation Assay
Assay type: cell-based
Settings: 6 hours with compound, 14-point dose response 1:3, bell-shape curve fit, half-maximal effect of first Hill model, read-out: MCF7 ESR1 HiBiT - (DC50)
Procedure, shortened: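 HiBiT-tagged endogenous ERα remaining in MCF7 knock-in cells was quantified by lytic luminescence after a 6 h treatment. DC50 values derive from a bell-shaped curve, taken at the first Hill component's half-maximal effect.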

Work on `O=C1CC[C@H](N2Cc3cc(N4CCN(CC5CCN(c6ccc([C@H]7c8ccc(O)cc8CC[C@H]7c7cccc(OC(F)(F)F)c7)cc6)CC5)CC4)ccc3C2=O)C(=O)N1` (single isomer, unassigned) [Compound I-110] yielded a DC50 of 0.155 nM.

In the case of `O=C1CC[C@H](N2Cc3cc(N4CCN(CC5CCN(c6ccc([C@H]7c8ccc(O)cc8CC[C@@]78CCc7ccccc78)cc6)CC5)CC4)ccc3C2=O)C(=O)N1` (relative stereo) [Compound I-261, (S)-3-(5-(4-((1-(4-((1S*,1′R*)-6′-hydroxy-2,3,3′,4′-tetrahydro-1′H-spirofindene-1,2′-naphthalen]-1′-yl)phenyl)piperidin-4-yl)methyl)piperazin-1-yl)-1-oxoisoindolin-2-yl)piperidine-2,6-dione], the DC50 is reported as 19 nM.

Work on `O=C1CC[C@H](c2ccc(N3CCC4(CCN(CC5CCN(c6ccc([C@@H]7c8ccc(O)cc8CC[C@@H]7c7ccccc7)cc6)CC5)C4)CC3)cc2)C(=O)N1` (single isomer, unassigned) [Compound I-283] yielded a DC50 of 5 nM.

With `CC1(C)CC([C@H]2CCc3cc(O)ccc3[C@H]2c2ccc(N3CCC(CN4CCN(c5ccc6c(c5)CN([C@H]5CCC(=O)NC5=O)C6=O)CC4)CC3)cc2)CC(C)(C)C1` [Compound I-116, (3.5)-3-[5-[4-[[1-[4-[(1S,2S)-6-hydroxy-2-(3,3,5,5-tetramethylcyclohexyl)tetralin-1-yl]phenyl]-4-piperidyl]methyl]piperazin-1-yl]-1-oxo-isoindolin-2-yl]piperidine-2,6-dione] the DC50 was ≥ 10000 nM.

With `O=C1CC[C@H](N2Cc3cc(N4CCN(CC5CCN(c6ccc([C@H]7c8ccc(O)cc8CC[C@H]7c7ccc8c(c7)CCCC8)cc6)CC5)CC4)ccc3C2=O)C(=O)N1` (single isomer, unassigned) [Compound I-60] the DC50 was 1 nM.

For `O=C1CC[C@H](N2Cc3cc(N4CCN(CC5CCN(c6ccc([C@@H]7c8ccc(Cl)cc8CC[C@@H]7c7ccccc7)cc6)CC5)CC4)ccc3C2=O)C(=O)N1` [II-60], the DC50 was ≥ 10000 nM.

With `O=C1CC[C@H](N2Cc3cc(N4CCN(CC5CCN(c6ccc([C@H]7c8ccc9[nH]ncc9c8CC[C@H]7c7ccccc7)cc6)CC5)CC4)ccc3C2=O)C(=O)N1` (single isomer, unassigned) [Compound I-44] the DC50 was 7 nM.

Compound `Cn1nc(N2CCC(=O)NC2=O)c2ccc(N3CCN(CC4CCN(c5ccc([C@@H]6c7ccc(O)cc7C(F)(F)C[C@@H]6c6ccccc6)cc5)CC4)CC3)cc21` [Compound I-300, 1-(6-(4-((1-(4-((1R,2S)-4,4-difluoro-6-hydroxy-2-phenyl-1,2,3,4-tetrahydronaphthalen-1-yl)phenyl)piperidin-4-yl)methyl)piperazin-1-yl)-1-methyl-1H-indazol-3-yl)dihydropyrimidine-2,4 (1H,3H)-dione] has a DC50 of 3300 nM.

For `CC(C)(O)[C@H]1CCc2cc(O)ccc2[C@H]1c1ccc(N2CCC(CN3CCN(c4ccc5c(c4)CN([C@H]4CCC(=O)NC4=O)C5=O)CC3)CC2)cc1` [Compound I-204, (S)-3-(5-(4-((1-(4-((1R,2S)-6-hydroxy-2-(2-hydroxypropan-2-yl)-1,2,3,4-tetrahydronaphthalen-1-yl)phenyl)piperidin-4-yl)methyl)piperazin-1-yl)-1-oxoisoindolin-2-yl)piperidine-2,6-dione], the DC50 was 2 nM.

For `O=C1CCC(N2Cc3cc(N4CCN(CC5CCN(c6ccc([C@H]7c8ccc(O)cc8CC[C@H]7c7cccc8c7CC8)cc6)CC5)CC4)ccc3C2=O)C(=O)N1` (single isomer, unassigned) [Compound I-101], the DC50 was 8 nM.

For `C[C@@H]1C[C@H](CN2CCN(c3ccc4c(c3)CN(C3CCC(=O)NC3=O)C4=O)CC2)CCN1c1ccc([C@@H]2c3ccc(O)cc3CC[C@@H]2c2ccccc2)cc1` (single isomer, unassigned) [II-48], the DC50 was 1 nM.

`COc1cc(N2CCC(CN3CCN(c4ccc5c(c4)CN([C@H]4CCC(=O)NC4=O)C5=O)CC3)CC2)c(-c2ccccc2)cc1[C@@H]1CCC(F)(F)c2cc(O)ccc21` [Compound I-405, (S)-3-(5-(4-((1-(5-((R)-4,4-difluoro-6-hydroxy-1,2,3,4-tetrahydronaphthalen-1-yl)-4-methoxy-[1,1′-biphenyl]-2-yl)piperidin-4-yl)methyl)piperazin-1-yl)-1-oxoisoindolin-2-yl)piperidine-2,6-dione] gave a DC50 of 1100 nM.

`O=C1CC[C@H](N2Cc3cc(N4CCN(CC5CCN(c6ccc([C@@H]7c8ccc(O)cc8CC[C@@H]7C7CCOCC7)cc6)CC5)CC4)ccc3C2=O)C(=O)N1` [Compound I-32, (3S)-3-[5-[4-[[1-[4-[(1R,2R)-6-hydroxy-2-tetrahydropyran-4-yl-tetralin-1-yl]phenyl]-4-piperidyl]methyl]piperazin-1-yl]-1-oxo-isoindolin-2-yl]piperidine-2,6-dione] gave a DC50 of 0.45 nM.

`O=C1CC[C@H](N2Cc3cc(N4CCN(CC5CCN(c6ccc([C@H]7c8ccc(O)cc8CO[C@]78CCc7ccccc78)cc6)CC5)CC4)ccc3C2=O)C(=O)N1` [Compound I-267, (S)-3-(5-(4-((1-(4-((1R,4′S)-7′-hydroxy-2,3-dihydrospiro[indene-1,3′-isochroman]-4′-yl)phenyl)piperidin-4-yl)methyl)piperazin-1-yl)-1-oxoisoindolin-2-yl)piperidine-2,6-dione] showed a DC50 of 4 nM.

For `O=C1CC[C@H](N2Cc3cc(N4CCN(C[C@H]5CC[C@H](c6ccc([C@@H]7c8ccc(O)cc8CC[C@@H]7c7ccccc7)cc6)CC5)CC4)ccc3C2=O)C(=O)N1` [II-52], the DC50 was 0.15 nM.

With `Cc1c(F)cccc1[C@H]1OCc2cc(O)ccc2[C@H]1c1ccc(N2CCC(CN3CCN(c4ccc5c(c4)CN([C@H]4CCC(=O)NC4=O)C5=O)CC3)CC2)cc1` (single isomer, unassigned) [Compound I-379] the DC50 was 0.37 nM.

`O=C1CC[C@H](N2Cc3cc(N4CCN(CC5CCN(c6ccc([C@H]7c8ccc(C(=O)O)cc8CC[C@H]7c7ccccc7)cc6)CC5)CC4)ccc3C2=O)C(=O)N1` (single isomer, unassigned) [Compound I-1] showed a DC50 of 3 nM.

`O=C1CC[C@H](N2Cc3cc(N4CCN(CC5CCN(c6ccc([C@@H]7c8ccc(Br)cc8CC[C@@H]7c7ccccc7)cc6)CC5)CC4)ccc3C2=O)C(=O)N1` [II-62] was tested, and the DC50 was ≥ 10000 nM.

`C[C@@]1(C2CCCCC2)OCc2cc(O)ccc2[C@H]1c1ccc(N2CCC(CN3CCN(c4ccc5c(c4)CN([C@H]4CCC(=O)NC4=O)C5=O)CC3)CC2)cc1` [Compound I-258, (S)-3-(5-(4-((1-(4-((3S,4R)-3-cyclohexyl-7-hydroxy-3-methylisochroman-4-yl)phenyl)piperidin-4-yl)methyl)piperazin-1-yl)-1-oxoisoindolin-2-yl)piperidine-2,6-dione] was tested, and the DC50 was 1 nM.

In the case of `Cc1cc([C@@H]2OCc3cc(O)ccc3[C@@H]2c2ccc(N3CCC(CN4CCN(c5ccc6c(c5)CN([C@H]5CCC(=O)NC5=O)C6=O)CC4)CC3)cc2)ccc1F` [Compound I-376, (S)-3-(5-(4-((1-(4-((3R,4S)-3-(4-fluoro-3-methylphenyl)-7-hydroxyisochroman-4-yl)phenyl)piperidin-4-yl)methyl)piperazin-1-yl)-1-oxoisoindolin-2-yl)piperidine-2,6-dione], the DC50 is reported as ≥ 10000 nM.

`O=C1CC[C@H](N2Cc3cc(N4CCN(CC5CC6CCC(C5)N6c5ccc([C@H]6c7ccc(O)cc7CC[C@H]6c6ccccc6)cc5)CC4)ccc3C2=O)C(=O)N1` (single isomer, unassigned) [II-56] was tested, and the DC50 was 0.006 nM.

`CC(C)[C@H]1CCc2cc(O)ccc2[C@H]1c1ccc(N2CCC(CN3CCN(c4ccc5c(c4)CN(C4CCC(=O)NC4=O)C5=O)CC3)CC2)cc1` (stereo in doubt) [Compound I-128, (R)-3-(5-(4-((1-(4-((1R,2R)-6-hydroxy-2-isopropyl-1,2,3,4-tetrahydronaphthalen-1-yl)phenyl)piperidin-4-yl)methyl)piperazin-1-yl)-1-oxoisoindolin-2-yl)piperidine-2,6-dione] was tested, and the DC50 was 0.1 nM.

`O=C1CC[C@H](N2Cc3cc(N4CCN(CC5CCN(c6ccc([C@@H]7c8ccc(O)cc8C(F)(F)C[C@@H]7c7cc(F)ccc7F)cc6)CC5)CC4)ccc3C2=O)C(=O)N1` [Compound I-316, (S)-3-(5-(4-((1-(4-((1R,2S)-2-(2,5-difluorophenyl)-4,4-difluoro-6-hydroxy-1,2,3,4-tetrahydronaphthalen-1-yl)phenyl)piperidin-4-yl)methyl)piperazin-1-yl)-1-oxoisoindolin-2-yl)piperidine-2,6-dione] was tested, and the DC50 was 0.3 nM.

`Cc1ccccc1[C@@H]1CCc2cc(O)ccc2[C@@H]1c1ccc(N2CCC(CN3CCN(c4ccc5c(c4)CN([C@H]4CCC(=O)NC4=O)C5=O)CC3)CC2)cc1` (single isomer, unassigned) [II-35] showed a DC50 of 0.34 nM.

With `O=C1CC[C@H](N2Cc3cc(N4CCN(CC5CCN(c6ccc([C@@H]7c8ccc(C(F)(F)F)cc8CC[C@@H]7c7ccccc7)cc6)CC5)CC4)ccc3C2=O)C(=O)N1` [Compound I-46, (S)-3-(1-oxo-5-(4-((1-(4-((1R,2S)-2-phenyl-6-(trifluoromethyl)-1,2,3,4-tetrahydronaphthalen-1-yl)phenyl)piperidin-4-yl)methyl)piperazin-1-yl)isoindolin-2-yl)piperidine-2,6-dione] the DC50 was ≥ 10000 nM.
